# Read-outs that look alike come from different tables or passages of the source.
# Key:
# Experiment in all cases: microbe, parasite or virus in culture
# Format in all cases: cell-based, Hepatitis C virus (HCV)
# HCV replicon 1A = settings: Replicon Assay A
# Summary of the method: (§1)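 Three-day treatment of replicon cells (2000/well, 5% FBS, 0.5% DMSO), followed by TaqMan RT-PCR of replicon RNA with cyclophilin as internal control.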
# HCV replicon 2B = settings: Replicon Assay A
# Summary of the method: as §1
# HCV replicon 1AY93H = settings: Replicon Assay A
# Summary of the method: as §1
# HCV replicon 1AQ30D = settings: Replicon Assay B
# HCV replicon 1B = settings: Replicon Assay B
# [1] = read-out: 2B IC50, HCV replicon 2B
# [2] = read-out: 1A Y93H IC50, HCV replicon 1A Y93H
# [3] = read-out: 1A Q30D IC50, HCV replicon 1A Q30D
# [4] = read-out: 1A Y93H IC50, replicon 1AY93H
# [5] = read-out: 1A Q30D IC50, replicon 1AQ30D
# [6] = Hepatitis C virus, HCV replicon 1A
# [7] = Hepatitis C virus, read-out: 1A Q30D IC50, HCV replicon 1A Q30D
# [8] = Hepatitis C virus, HCV replicon 1B
Compound,IC50 (HCV replicon 2B; [1]),IC50 (HCV replicon 1AY93H; [2]),IC50 (HCV replicon 1A; replicon 1A),"IC50 (HCV replicon 2B; read-out: 2B IC50, replicon 2B)",IC50 (HCV replicon 1AY93H; [4]),IC50 (HCV replicon 1AQ30D; [5]),IC50 (HCV replicon 1B; replicon 1B),IC50 (HCV replicon 1A; [6]),IC50 (HCV replicon 1B; [8]),further results
"COC(=O)N[C@H](C(=O)N1CCC[C@H]1c1ncc(-c2cc(C)c3c(c2)OC(c2ccc(C4CC4)s2)n2c-3cc3cc(-c4cnc([C@@H]5C[C@H]6C[C@H]6N5C(=O)[C@@H](NC(=O)OC)C(C)C)[nH]4)ccc32)[nH]1)C(C)C (single isomer, unassigned) [Compound 756]",0.6 nM,0.64 nM,,,,,,,,IC50 (HCV replicon 1A; HCV replicon 1A): 3.6 pM; IC50 (HCV replicon 1AQ30D; [3]): 10.2 nM; IC50 (HCV replicon 1B; HCV replicon 1B): 2.2 pM
"COC(=O)N[C@H](C(=O)N1CCC[C@H]1c1ncc(-c2cc(F)c3c(c2)OC(c2ccc(C4CC4)s2)n2c-3cc3cc(-c4cnc([C@@H]5CCCN5C(=O)[C@@H](NC(=O)OC)C5CCOCC5)[nH]4)ccc32)[nH]1)C1CCOCC1 (single isomer, unassigned) [Compound 280]",,,2.1 pM,0.003 nM,0.003 nM,0.005 nM,2.6 pM,,,
COC(=O)NC(C(=O)N1CCC[C@H]1c1ncc(-c2ccc3c(c2)cc2n3C(c3ccc(C(F)(F)F)s3)Oc3cc(-c4cnc([C@@H]5CCCN5C(=O)[C@@H](NC(=O)OC)C(C)C)[nH]4)cc(F)c3-2)[nH]1)C1C[C@@H](C)O[C@@H](C)C1 (stereo partly drawn) [Compound 650],,,,,,,,2 pM,1.4 pM,"IC50 (HCV replicon 2B; Hepatitis C virus, read-out: 2B IC50, HCV replicon 2B): 0.005 nM; IC50 (HCV replicon 1AY93H; Hepatitis C virus, read-out: 1A Y93H IC50, HCV replicon 1A Y93H): 0.0057 nM; IC50 (HCV replicon 1AQ30D; [7]): 0.0458 nM"
"COC(=O)N[C@H](C(=O)N1CCC[C@H]1c1ncc(-c2ccc3c(c2)cc2n3C(c3ccc(C4CC4)s3)Oc3cc(-c4cnc([C@@H]5CCCN5C(=O)[C@@H](NC(=O)OC)C5CCOCC5)[nH]4)cc(C)c3-2)[nH]1)C(C)C (single isomer, unassigned) [Compound 122]",,,,0.003 nM,0.007 nM,0.029 nM,,,,"IC50 (HCV replicon 1A; Hepatitis C virus, replicon 1A): 2 pM; IC50 (HCV replicon 1B; Hepatitis C virus, replicon 1B): 2.3 pM"
"COC(=O)NC(C(=O)N1CCC[C@H]1c1ncc(-c2ccc3c(c2)cc2n3C(c3ccc(C4CC4)s3)Oc3cc(-c4cnc([C@@H]5CCCN5C(=O)[C@@H](NC(=O)OC)C(C)C)[nH]4)cc(F)c3-2)[nH]1)C1CCO[C@H](C)C1 (single isomer, unassigned) [Compound 135]",,,2.4 pM,0.006 nM,0.004 nM,0.027 nM,3 pM,,,
"COC(=O)N[C@H](C(=O)N1CCC[C@H]1c1ncc(-c2cc(C)c3c(c2)OC(c2ccc(C4CC4)s2)n2c-3cc3cc(-c4cnc([C@@H]5C[C@H]6C[C@H]6N5C(=O)[C@@H](NC(=O)OC)C(C)C)[nH]4)ccc32)[nH]1)C(C)C (single isomer, unassigned) [Compound 754]",0.039 nM,0.042 nM,,,,,,2.4 pM,2.6 pM,IC50 (HCV replicon 1AQ30D; [3]): 0.433 nM
"COC(=O)N[C@H](C(=O)N1CCC[C@H]1c1ncc(-c2cc(F)c3c(c2)OC(c2ccc(C(F)(F)F)s2)n2c-3cc3cc(-c4cnc([C@@H]5CCCN5C(=O)[C@@H](NC(=O)OC)C5CCOCC5)[nH]4)ccc32)[nH]1)C(C)C (single isomer, unassigned) [Compound 654]",0.0061 nM,0.0095 nM,,,,,,1.1 pM,2 pM,IC50 (HCV replicon 1AQ30D; [7]): 0.0839 nM
"COC(=O)NC(C(=O)N1CCC[C@H]1c1ncc(-c2ccc3c(c2)cc2n3C(c3ccc(C4CC4)s3)Oc3cc(-c4cnc([C@@H]5CCCN5C(=O)[C@@H](NC(=O)OC)C(C)C)[nH]4)cc(F)c3-2)[nH]1)C1CCO[C@H](C)C1 (single isomer, unassigned) [Compound 136]",,,1.8 pM,0.23 nM,0.2 nM,0.9 nM,1.7 pM,,,
COC(=O)N[C@H](C(=O)N1CCC[C@H]1c1ncc(-c2cc(F)c3c(c2)OC(c2ccc(-c4ccc(N=[N+]=[N-])cc4)s2)n2c-3cc3cc(-c4cnc([C@@H]5CCCN5C(=O)[C@@H](NC(=O)OC)C(C)C)[nH]4)ccc32)[nH]1)C(C)C (mixture of isomers) [Compound 264],,,,,,,,,,"IC50 (HCV replicon 1A; Hepatitis C virus, replicon 1A): 3.7 pM; IC50 (HCV replicon 2B; Hepatitis C virus, read-out: 2B IC50 (nM), replicon 2B): 0.19 nM; IC50 (HCV replicon 1AY93H; Hepatitis C virus, read-out: 1A Y93H IC50 (nM), replicon 1AY93H): 0.029 nM; IC50 (HCV replicon 1AQ30D; Hepatitis C virus, read-out: 1A Q30D IC50 (nM), replicon 1AQ30D): 0.7 nM; IC50 (HCV replicon 1B; Hepatitis C virus, replicon 1B): 4.3 pM"

# From patent publication US20160257697A1, “THIOPHENE-SUBSTITUTED TETRACYCLIC COMPOUNDS AND METHODS OFUSE THEREOF FOR THE TREATMENT OF VIRAL DISEASES” (priority 2013, published 2016)
